Where a name gives a salt, the structure may show the parent alone.
What was measured:
[1] = biological target: T1, phosphorylated ERBB2 (pERBB2) (Homo sapiens, UniProt P04626); test: Detection of phosphorylated ERBB2 (pERBB2) by ELISA in BT-474 cells; assay type: cell-based; settings: four hours incubation
T1 construct: endogenous in cells; host or cells: BT-474
How it was run: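 Phospho-ERBB2 in lysates was quantified by sandwich ELISA (A450, TMB) after 4 h compound exposure at 37 °C of BT-474 cells seeded at 2.0×10^4 per well. Compounds tested at 10 µM to 0.01 nM final in four-fold steps; activity normalized to DMSO (0.1%) high and cell-free low controls.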

[2] = biological target: Ba/F3 ERBB2 A775_G776insYVMA (Homo sapiens, UniProt P04626, DUP772-775, cells depend on it); test: Cell viability assay, Ba/F3 ERBB2 A775_G776insYVMA; assay type: cell-based, mouse; settings: Ba/F3 ERBB2 YVMA cells, cell viability, 72 hours, CellTiter Glo; Table B5; read-out: Ba/F3 ERBB2 YVMA, IC50
Ba/F3 ERBB2 A775_G776insYVMA, sequence (P04626 with tags, fused parts or gaps DUP772-775): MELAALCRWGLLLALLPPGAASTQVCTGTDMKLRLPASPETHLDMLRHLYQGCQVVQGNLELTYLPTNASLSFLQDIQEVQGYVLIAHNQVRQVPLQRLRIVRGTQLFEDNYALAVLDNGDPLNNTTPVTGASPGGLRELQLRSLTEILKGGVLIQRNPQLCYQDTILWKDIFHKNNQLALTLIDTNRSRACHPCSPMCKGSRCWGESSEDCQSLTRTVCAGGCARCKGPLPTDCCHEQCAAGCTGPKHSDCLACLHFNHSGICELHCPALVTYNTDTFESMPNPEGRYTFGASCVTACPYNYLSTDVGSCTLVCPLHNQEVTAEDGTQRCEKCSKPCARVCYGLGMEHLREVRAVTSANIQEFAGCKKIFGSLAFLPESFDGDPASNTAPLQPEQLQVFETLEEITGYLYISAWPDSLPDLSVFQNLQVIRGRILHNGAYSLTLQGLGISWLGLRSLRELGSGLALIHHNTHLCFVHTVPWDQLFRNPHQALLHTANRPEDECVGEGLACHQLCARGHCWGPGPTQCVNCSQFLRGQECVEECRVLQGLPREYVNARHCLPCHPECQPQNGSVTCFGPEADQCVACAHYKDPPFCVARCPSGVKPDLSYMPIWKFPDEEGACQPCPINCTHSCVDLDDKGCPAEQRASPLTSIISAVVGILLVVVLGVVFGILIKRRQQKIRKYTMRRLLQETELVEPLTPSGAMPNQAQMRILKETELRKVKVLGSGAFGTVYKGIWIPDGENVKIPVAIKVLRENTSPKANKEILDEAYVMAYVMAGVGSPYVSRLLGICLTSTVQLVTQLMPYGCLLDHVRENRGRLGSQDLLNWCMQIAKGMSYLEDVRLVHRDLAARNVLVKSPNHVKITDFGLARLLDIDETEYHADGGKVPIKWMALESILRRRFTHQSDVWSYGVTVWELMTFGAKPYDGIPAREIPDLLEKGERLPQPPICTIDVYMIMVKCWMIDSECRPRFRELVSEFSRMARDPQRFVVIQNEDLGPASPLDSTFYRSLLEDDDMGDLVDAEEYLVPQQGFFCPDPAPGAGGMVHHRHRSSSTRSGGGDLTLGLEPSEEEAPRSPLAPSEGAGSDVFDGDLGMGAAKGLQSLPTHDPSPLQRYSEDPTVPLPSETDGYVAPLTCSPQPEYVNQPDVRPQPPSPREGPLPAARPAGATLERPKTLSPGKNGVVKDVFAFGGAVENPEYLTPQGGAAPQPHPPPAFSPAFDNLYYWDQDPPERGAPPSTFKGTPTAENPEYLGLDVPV
How it was run: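 Viability after 72 h compound treatment (37 °C, 5% CO2) was quantified by CellTiter-Glo luminescence of intracellular ATP, with sigmoidal dose-response fitting. Cells were retrovirally engineered Ba/F3 lines whose growth depends on the mutant human ERBB2 in place of IL-3, plated at 3000 per well.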

[3] = biological target: T2, phosphorylated EGFR (pEGFR) (Homo sapiens, UniProt P00533); test: Detection of phosphorylated EGFR (pEGFR) in EGF-stimulated A431 cells; assay type: cell-based; settings: A431 cells (10% FBS), 4 hours incubation, EGF 30 ng/mL 10 minutes, AlphaLISA
T2 construct: performed to measure phosphorylated EGFR levels using A431 cells (10% FBS); endogenous in cells; host or cells: A431
T2 sequence (P00533 25-1210): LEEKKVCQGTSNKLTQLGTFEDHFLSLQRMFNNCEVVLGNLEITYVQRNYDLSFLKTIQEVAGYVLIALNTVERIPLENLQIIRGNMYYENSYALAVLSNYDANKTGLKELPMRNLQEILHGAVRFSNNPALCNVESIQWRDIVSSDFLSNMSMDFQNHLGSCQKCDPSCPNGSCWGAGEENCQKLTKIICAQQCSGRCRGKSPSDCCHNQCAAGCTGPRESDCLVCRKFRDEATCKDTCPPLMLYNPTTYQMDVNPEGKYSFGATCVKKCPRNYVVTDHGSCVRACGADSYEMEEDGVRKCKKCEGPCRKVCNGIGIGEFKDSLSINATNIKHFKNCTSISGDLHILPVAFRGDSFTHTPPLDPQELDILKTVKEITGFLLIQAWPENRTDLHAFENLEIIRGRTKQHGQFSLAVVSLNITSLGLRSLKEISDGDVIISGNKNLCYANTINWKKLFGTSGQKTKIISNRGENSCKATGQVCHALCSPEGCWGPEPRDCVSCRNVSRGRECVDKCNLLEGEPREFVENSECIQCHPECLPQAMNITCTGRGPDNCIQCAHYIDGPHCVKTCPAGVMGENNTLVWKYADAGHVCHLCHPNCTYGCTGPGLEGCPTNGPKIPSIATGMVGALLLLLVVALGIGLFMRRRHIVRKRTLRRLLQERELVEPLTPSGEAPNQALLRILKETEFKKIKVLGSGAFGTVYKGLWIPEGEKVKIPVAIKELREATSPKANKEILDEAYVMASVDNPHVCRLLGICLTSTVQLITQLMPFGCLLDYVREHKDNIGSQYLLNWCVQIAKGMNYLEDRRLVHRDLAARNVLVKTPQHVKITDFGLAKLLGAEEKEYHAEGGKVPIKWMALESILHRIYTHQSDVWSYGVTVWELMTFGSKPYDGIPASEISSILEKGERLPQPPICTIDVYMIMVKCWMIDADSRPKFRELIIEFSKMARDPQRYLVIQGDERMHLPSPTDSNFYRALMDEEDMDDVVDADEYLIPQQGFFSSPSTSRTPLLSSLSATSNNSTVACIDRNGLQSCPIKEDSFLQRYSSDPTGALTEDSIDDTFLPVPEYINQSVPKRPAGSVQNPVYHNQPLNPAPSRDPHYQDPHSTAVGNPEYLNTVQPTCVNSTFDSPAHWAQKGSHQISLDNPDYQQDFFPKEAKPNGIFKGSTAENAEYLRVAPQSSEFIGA
How it was run: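 AlphaLISA read-out of EGFR phosphorylation after a 10-min EGF pulse (30 ng/mL final). A431 cells (10% FBS) had been exposed to compound for 4 h at 37 °C. IC50 was fitted from % inhibition normalised to DMSO and staurosporine control lysates.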

T1 sequence (P04626 23-1255): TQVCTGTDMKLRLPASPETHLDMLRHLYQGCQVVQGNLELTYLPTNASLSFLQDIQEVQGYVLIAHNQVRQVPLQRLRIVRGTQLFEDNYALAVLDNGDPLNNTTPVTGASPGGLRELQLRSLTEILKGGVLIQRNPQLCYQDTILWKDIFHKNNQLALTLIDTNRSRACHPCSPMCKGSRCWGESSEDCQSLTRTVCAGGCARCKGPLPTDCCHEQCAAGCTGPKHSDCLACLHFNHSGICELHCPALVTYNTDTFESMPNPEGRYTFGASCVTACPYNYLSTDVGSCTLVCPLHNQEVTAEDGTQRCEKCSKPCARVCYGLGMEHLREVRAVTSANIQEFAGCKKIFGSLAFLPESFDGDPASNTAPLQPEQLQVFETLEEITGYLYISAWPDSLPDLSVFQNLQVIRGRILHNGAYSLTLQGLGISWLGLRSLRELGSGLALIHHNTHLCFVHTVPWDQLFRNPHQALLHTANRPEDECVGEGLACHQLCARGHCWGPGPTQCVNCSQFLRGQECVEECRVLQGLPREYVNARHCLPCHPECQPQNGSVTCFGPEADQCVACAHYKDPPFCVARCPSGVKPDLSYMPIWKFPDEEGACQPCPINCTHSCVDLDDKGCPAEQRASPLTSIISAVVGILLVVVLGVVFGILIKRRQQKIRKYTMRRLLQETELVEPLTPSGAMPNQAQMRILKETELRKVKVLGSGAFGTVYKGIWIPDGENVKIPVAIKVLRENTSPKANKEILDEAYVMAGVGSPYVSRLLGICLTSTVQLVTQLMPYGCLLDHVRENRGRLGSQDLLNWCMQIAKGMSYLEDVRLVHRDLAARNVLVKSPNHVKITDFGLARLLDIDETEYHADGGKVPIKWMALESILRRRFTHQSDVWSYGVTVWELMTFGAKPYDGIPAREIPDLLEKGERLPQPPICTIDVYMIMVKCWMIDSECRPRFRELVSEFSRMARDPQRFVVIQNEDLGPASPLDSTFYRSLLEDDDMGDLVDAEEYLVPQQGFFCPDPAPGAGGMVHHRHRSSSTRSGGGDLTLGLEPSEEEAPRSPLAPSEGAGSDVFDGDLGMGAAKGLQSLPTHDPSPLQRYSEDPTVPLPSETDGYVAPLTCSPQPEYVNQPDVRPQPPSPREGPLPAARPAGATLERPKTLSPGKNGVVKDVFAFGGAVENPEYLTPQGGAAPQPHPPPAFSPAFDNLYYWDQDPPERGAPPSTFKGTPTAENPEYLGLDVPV

| SMILES | IC50 [1] [nM] | IC50 [3] [nM] | GI50 [2] [nM] |
| --- | --- | --- | --- |
| Cc1cc(Nc2ncnc3ccc(N4CC/C(=C\CN(C)C)C4=O)nc23)ccc1Oc1ccn2ncnc2c1 [Compound 47, (E)-1-(4-((4-([1,2,4]triazolo[1,5-a]pyridin-7-yloxy)-3-methylphenyl)amino)pyrido[3,2-d]pyrimidin-6-yl)-3-(2-(dimethylamino)ethylidene)pyrrolidin-2-one] | 28.9 | 2220 | 4.08 |
| Cc1cc(Nc2ncnc3ccc(N4CC/C(=C\CN(C)C)C4=O)nc23)ccc1Oc1ccc2c(c1)nnn2C [Compound 68, (3E)-3-[2-(dimethylamino)ethylidene]-1-[4-({3-methyl-4-[(1-methyl-1,2,3-benzotriazol-5-yl)oxy]phenyl}amino)pyrido[3,2-d]pyrimidin-6-yl]pyrrolidin-2-one] | 30.5 | 973 | 3.81 |
| Cc1cc(Nc2ncnc3ccc(N4CC/C(=C\[C@@H]5CCCN5C)C4=O)nc23)ccc1Oc1ccn2ncnc2c1 [Compound 89, (S,E)-1-(4-((4-([1,2,4]triazolo[1,5-a]pyridin-7-yloxy)-3-methylphenyl)amino)pyrido[3,2-d]pyrimidin-6-yl)-3-((1-methylpyrrolidin-2-yl)methylene)pyrrolidin-2-one] | 28.9 | 699 | 1.87 |
| CNC/C=C1\CCN(c2ccc3ncnc(Nc4ccc(Oc5ccc6c(c5)ncn6C)c(C)c4)c3n2)C1=O [Compound 100, (3E)-1-[4-({3-methyl-4-[(1-methyl-1,3-benzodiazol-5-yl)oxy]phenyl}amino)pyrido[3,2-d]pyrimidin-6-yl]-3-[2-(methylamino)ethylidene]pyrrolidin-2-one; formic acid] | 57.7 | 157 | 3.19 |
| Cc1cc(Nc2ncnc3cnc(N4CC/C(=C\CCN(C)C)C4=O)cc23)ccc1Oc1ccn2ncnc2c1 [Compound 60, (E)-1-(4-(4-([1,2,4]triazolo[1,5-a]pyridin-7-yloxy)-3-methylphenylamino)pyrido[3,4-d]pyrimidin-6-yl)-3-(3-(dimethylamino)propylidene)pyrrolidin-2-one formate] | 12 | 3040 | 22.5 |
| Cc1cc(Nc2ncnc3ccc(N4CC/C(=C\CN(C)C)C4=O)nc23)ccc1Oc1ccc2nccnc2c1 [Compound 61, (E)-3-(2-(dimethylamino)ethylidene)-1-(4-(3-methyl-4-(quinoxalin-6-yloxy)phenylamino)pyrido[3,2-d]pyrimidin-6-yl)pyrrolidin-2-one] | 132 | 1010 | 7.15 |
| Cc1cc(Nc2ncnc3cnc(N4CC/C(=C\CN5CCC5)C4=O)cc23)ccc1Oc1ccn2ncnc2c1 [Compound 102, (E)-1-(4-((4-([1,2,4]triazolo[1,5-a]pyridin-7-yloxy)-3-methylphenyl)amino)pyrido[3,4-d]pyrimidin-6-yl)-3-(2-(azetidin-1-yl)ethylidene)pyrrolidin-2-one] | 8.26 | 3010 | 7.51 |
| Cc1cc(Nc2ncnc3ccc(N4CC/C(=C\[C@H]5CCCN5C)C4=O)nc23)ccc1Oc1ccn2ncnc2c1 [Compound 90, (R,E)-1-(4-((4-([1,2,4]triazolo[1,5-a]pyridin-7-yloxy)-3-methylphenyl)amino)pyrido[3,2-d]pyrimidin-6-yl)-3-((1-methylpyrrolidin-2-yl)methylene)pyrrolidin-2-one] | 17.1 | 5770 | 10.8 |
| C=C1C(=O)N(c2ccc3ncnc(Nc4ccc(Oc5ccn6ncnc6c5)c(C)c4)c3c2)CC1CN(C)C (stereo not drawn) [Compound 30, 4-[(dimethylamino)methyl]-1-{4-[(3-methyl-4-{[1,2,4]triazolo [1,5-a]pyridin-7-yloxy}phenyl)amino]quinazolin-6-yl}-3-methylidenepyrrolidin-2-one; formic acid] | 12.3 | 68.4 | 17.4 |
| Cc1cc(Nc2ncnc3ccc(N4CC/C(=C\CN(C)C)C4=O)nc23)ccc1Oc1cncc(F)c1 [Compound 130, (3E)-3-[2-(dimethylamino)ethylidene]-1-[4-({4-[(5-fluoropyridin-3-yl)oxy]-3-methylphenyl}amino)pyrido[3,2-d]pyrimidin-6-yl]pyrrolidin-2-one] | 40.6 | 187 | 17.8 |
| CN(C)C/C=C1\CCN(c2ccc3ncnc(Nc4cc(F)c(Oc5ccn6ncnc6c5)cc4F)c3n2)C1=O [Compound 141, (E)-1-(4-((4-([1,2,4]triazolo[1,5-a]pyridin-7-yloxy)-2,5-difluorophenyl)amino)pyrido[3,2-d]pyrimidin-6-yl)-3-(2-(dimethylamino)ethylidene)pyrrolidin-2-one] | 23.8 | > 10000 | 28.5 |
| CN(C)C/C=C1\CCN(c2ccc3ncnc(Nc4ccc(Oc5ccn6ncnc6c5)cc4F)c3n2)C1=O [Compound 156, (E)-1-(4-((4-([1,2,4]triazolo[1,5-a]pyridin-7-yloxy)-2-fluorophenyl)amino)pyrido[3,2-d]pyrimidin-6-yl)-3-(2-(dimethylamino)ethylidene)pyrrolidin-2-one] | 21.7 | 7760 | 23.3 |
| CN(C)C/C=C1\CCN(c2ccc3ncnc(Nc4ccc(Oc5cccnc5)c(F)c4)c3n2)C1=O [Compound 126, (3E)-3-[2-(dimethylamino)ethylidene]-1-(4-{[3-fluoro-4-(pyridin-3-yloxy)phenyl]amino}pyrido[3,2-d]pyrimidin-6-yl)pyrrolidin-2-one] | 99.1 | 1110 | 34 |
| CN(C)C/C=C1\CCN(c2cc3c(Nc4ccc(Oc5ccn6ncnc6c5)c(F)c4)ncnc3cn2)C1=O [Compound 129, (3E)-3-[2-(dimethylamino)ethylidene]-1-{4-[(3-fluoro-4-{[1,2,4]triazolo[1,5-a]pyridin-7-yloxy}phenyl)amino]pyrido[3,4-d]pyrimidin-6-yl}pyrrolidin-2-one] | 11.9 | 2320 | 19.3 |
| C=C1CCN(c2cc3c(Nc4ccc(Oc5ccn6ncnc6c5)c(Cl)c4)ncnc3cc2OCCN(C)C)C1=O [Compound 25, 1-{4-[(3-chloro-4-{[1,2,4]triazolo[1,5-a]pyridin-7-yloxy}phenyl)amino]-7-[2-(dimethylamino)ethoxy]quinazolin-6-yl}-3-methylidenepyrrolidin-2-one] | 1190 | > 10000 | > 500 |

More lines, main results first:

| IC50 [1] [nM] | IC50 [3] [nM] | SMILES | GI50 [2] [nM] |
| --- | --- | --- | --- |
| 29.7 | 264 | Cc1cc(Nc2ncnc3ccc(N4CC(C)/C(=C\CN(C)C)C4=O)nc23)ccc1Oc1ccc2c(c1)ncn2C (single isomer, unassigned; enantiomer 1) [Example S58, Enantiomer # 1, (3E)-3-[2-(dimethylamino)ethylidene]-4-methyl-1-[4-({3-methyl-4-[(1-methyl-1,3-benzodiazol-5-yl)oxy]phenyl}amino)pyrido[3,2-d]pyrimidin-6-yl]pyrrolidin-2-one hydrochloride Enantiomer 1] | 1.46 |
| 40.9 | 299 | Cc1cc(Nc2ncnc3ccc(N4CC(C)C(=CCN(C)C)C4=O)nc23)ccc1Oc1ccc2c(c1)nnn2C (single isomer, unassigned) [Example S126, Enantiomer #1, 3-[2-(dimethylamino)ethylidene]-4-methyl-1-[4-({3-methyl-4-[(1-methyl-1,2,3-benzotriazol-5-yl)oxy]phenyl}amino)pyrido[3,2-d]pyrimidin-6-yl]pyrrolidin-2-one] | 2.04 |
| 401 | > 10000 | Cc1cc(Nc2ncnc3ccc(N4CC(C)C(=CCN(C)C)C4=O)nc23)ccc1Oc1ccc2c(c1)nnn2C (single isomer, unassigned) [Example S126, Enantiomer #2, 3-[2-(dimethylamino)ethylidene]-4-methyl-1-[4-({3-methyl-4-[(1-methyl-1,2,3-benzotriazol-5-yl)oxy]phenyl}amino)pyrido[3,2-d]pyrimidin-6-yl]pyrrolidin-2-one] | 205 |
| 11.5 | 574 | Cc1cc(Nc2ncnc3cnc(N4CC(C)/C(=C\CN(C)C)C4=O)cc23)ccc1Oc1ccc2c(c1)nnn2C (single isomer, unassigned) [Example S86, Enantiomer #1, (3E)-3-[2-(dimethylamino)ethylidene]-4-methyl-1-[4-({3-methyl-4-[(1-methyl-1,2,3-benzotriazol-5-yl)oxy]phenyl}amino)pyrido[3,4-d]pyrimidin-6-yl]pyrrolidin-2-one] | 2.59 |
| 14 | 575 | CC1CN(c2ccc3ncnc(Nc4ccc(Oc5ccn6ncnc6c5)c(F)c4)c3n2)C(=O)/C1=C/CN(C)C (single isomer, unassigned) [Example S127, Enantiomer #1, (E)-1-(4-((4-([1,2,4]triazolo[1,5-a]pyridin-7-yloxy)-3-fluorophenyl)amino)pyrido[3,2-d]pyrimidin-6-yl)-3-(2-(dimethylamino)ethylidene)-4-methylpyrrolidin-2-one] | 2.88 |

Source: patent US20240116921A1, “LACTAM (HETERO)[…] DERIVATIVES AS INHIBITORS OF ERBB2” (EnLiven Therapeutics, Inc., priority 2020, published 2024)
